In PMC9127186, “Molecular Basis Underlying Hepatobiliary and Renal Excretion of Phenolic Acids of Salvia miltiorrhiza Roots (Danshen)” (Frontiers in Pharmacology, 2022):

What was measured:
[1] = biological target: human MRP3 (Homo sapiens, UniProt O15438); assay: Vesicular transport assay, inside-out membrane vesicles expressing human MRP3; conditions: 10 min
Experimental: (§1) Inside-out membrane vesicles (5 mg protein/mL), prepared from insect cells expressing human multidrug resistance-associated protein (MRP) 2, MRP3, MRP4, breast cancer resistance protein (BCRP), bile salt export pump (BSEP), and multidrug resistance protein (MDR) one and rat Mrp2, Mrp4, Bcrp, and Bsep, and vesicles (5 mg protein/mL; prepared from the insect cells expressing no ABC transporter; serving as negative control) were obtained from Genomembrane (Kanazawa, Japan).
(§2) The test Danshen compounds at 100 µM final concentration were separately incubated with the membrane vesicles for 10 min. Buffer C (50 mM MOPS-tris, 70 mM KCl, 7.5 mM MgCl2, pH 7.0) was used for preincubation and incubation, while buffer D (40 mM MOPS-tris, 70 mM KCl, pH 7.0) was used for vesicle washing. The transport rate (pmol/mg protein/min) of the test Danshen compound was calculated using Equation (2): Transport=(CV×VV)/T/WV (2) where C V, V V, T, and W V represent concentration of the compound in vesicular lysates supernatant (μM), volume of the lysates (μL), incubation time (10 min), and amount of vesicle protein amount per well (0.05 mg), respectively. Differential transport of the test Danshen compound between ATP-containing vesicles and AMP-containing vesicles was defined as net transport ratio (TransportATP/TransportAMP ratio). […] All the incubation samples were analyzed by liquid chromatography/mass spectrometry.

[2] = biological target: T1, human BCRP (Homo sapiens, UniProt Q9UNQ0); assay: Vesicular transport assay, inside-out membrane vesicles expressing human BCRP; conditions: 10 min
T1 sequence (Q9UNQ0 1-655): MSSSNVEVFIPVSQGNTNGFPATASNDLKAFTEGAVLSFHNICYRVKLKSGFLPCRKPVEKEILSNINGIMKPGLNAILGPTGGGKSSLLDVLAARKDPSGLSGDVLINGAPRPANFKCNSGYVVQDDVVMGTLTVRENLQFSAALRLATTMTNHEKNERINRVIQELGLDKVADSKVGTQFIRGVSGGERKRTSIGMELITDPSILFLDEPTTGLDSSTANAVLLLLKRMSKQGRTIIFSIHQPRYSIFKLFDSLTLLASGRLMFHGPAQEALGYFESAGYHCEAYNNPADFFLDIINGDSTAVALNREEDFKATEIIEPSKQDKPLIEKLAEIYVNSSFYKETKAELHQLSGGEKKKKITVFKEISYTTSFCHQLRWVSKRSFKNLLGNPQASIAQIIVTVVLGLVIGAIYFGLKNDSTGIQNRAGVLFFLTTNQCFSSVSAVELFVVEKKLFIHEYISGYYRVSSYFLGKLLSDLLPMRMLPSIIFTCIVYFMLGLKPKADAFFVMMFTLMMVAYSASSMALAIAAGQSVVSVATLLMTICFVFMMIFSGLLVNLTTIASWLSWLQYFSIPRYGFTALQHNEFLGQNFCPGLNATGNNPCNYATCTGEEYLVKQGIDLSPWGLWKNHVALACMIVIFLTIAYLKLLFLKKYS
Experimental: as §1, §2

[3] = biological target: human MDR1 (Homo sapiens, UniProt P08183); assay: Vesicular transport assay, inside-out membrane vesicles expressing human MDR1; conditions: 10 min
Experimental: as §1, §2

[4] = biological target: rat Mrp2 (Rattus norvegicus, UniProt Q63120); assay: Vesicular transport assay, inside-out membrane vesicles expressing rat Mrp2; conditions: for TransportATP/TransportAMP ratio (net transport ratio): 10 min
Experimental: as §1, §2

[5] = biological target: T2, human OAT3 (Homo sapiens, UniProt Q8TCC7); assay: Cellular transport assay, HEK-293 cells expressing human OAT3; conditions: for TransportTC/TransportMC ratio (net transport ratio): 10 min
T2 sequence (Q8TCC7 1-542): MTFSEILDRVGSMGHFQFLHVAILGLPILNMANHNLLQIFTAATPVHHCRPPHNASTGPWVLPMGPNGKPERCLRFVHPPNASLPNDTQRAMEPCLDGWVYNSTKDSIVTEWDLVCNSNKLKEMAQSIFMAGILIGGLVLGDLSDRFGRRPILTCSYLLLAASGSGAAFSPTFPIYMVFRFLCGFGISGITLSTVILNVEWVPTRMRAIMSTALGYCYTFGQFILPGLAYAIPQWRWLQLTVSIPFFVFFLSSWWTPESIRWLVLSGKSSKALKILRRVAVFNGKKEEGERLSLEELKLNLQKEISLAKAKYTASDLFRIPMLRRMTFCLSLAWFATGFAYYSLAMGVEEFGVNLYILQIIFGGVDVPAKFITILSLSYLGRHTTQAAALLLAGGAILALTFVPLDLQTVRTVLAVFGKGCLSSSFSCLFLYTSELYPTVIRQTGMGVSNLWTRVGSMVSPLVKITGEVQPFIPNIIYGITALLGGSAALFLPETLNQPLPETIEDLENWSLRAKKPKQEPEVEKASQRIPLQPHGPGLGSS
Experimental: Briefly, HEK-293 cells were grown, at 37°C and 5% CO2, in Dulbecco’s modified Eagle’s medium, which was fortified with 10% fetal bovine serum, 1% minimal essential medium nonessential amino acids, and 1% antibiotic-antimycotic solution. A day before transfection, cells were seeded onto 24-well poly-D-lysine-coated plates at a density of 2 × 10^5 cells per well. After incubation at 37°C and 5% CO2 for 24 h, the expression plasmid and the empty vector were introduced separately into the HEK293 cells with Lipofectamine 2000 transfection reagent (Invitrogen, Carlsbad, CA, United States), according to the manufacturer’s protocol to yield transporter-expressing cells and mock cells, respectively.
Transport studies were performed 48 h after the transfection. […] Differential uptake between the transfected cells and mock cells was defined as net transport ratio (TransportTC/TransportMC ratio), where TransportTC and TransportMC are the transport rates of a test Danshen compound into transfected and mock cells, respectively. […] The determination was performed under linear uptake conditions by incubation for 5 min. Table 1 summarizes the final concentrations of the test Danshen compounds for different transporters. All the incubation samples were analyzed by liquid chromatography/mass spectrometry.
GraFit software (version 5.0; Erithacus Software Ltd, Surrey, United Kingdom) was used to determine the K m and V max values by nonlinear regression analysis of initial transport rates as a function of substrate concentration.

[6] = Danshen phenolic acid at 100 μM final concentration, human MRP3 vesicles
[7] = Danshen phenolic acid at 100 μM final concentration, human BCRP vesicles
[8] = Danshen phenolic acid at 100 μM final concentration, human MDR1 vesicles
[9] = Danshen phenolic acid at 100 μM final concentration, rat Mrp2 vesicles
[10] = Danshen phenolic acid at 100 μM final concentration, human OAT3-transfected vs mock cells

Chain of human MRP3 (O15438 whole entry): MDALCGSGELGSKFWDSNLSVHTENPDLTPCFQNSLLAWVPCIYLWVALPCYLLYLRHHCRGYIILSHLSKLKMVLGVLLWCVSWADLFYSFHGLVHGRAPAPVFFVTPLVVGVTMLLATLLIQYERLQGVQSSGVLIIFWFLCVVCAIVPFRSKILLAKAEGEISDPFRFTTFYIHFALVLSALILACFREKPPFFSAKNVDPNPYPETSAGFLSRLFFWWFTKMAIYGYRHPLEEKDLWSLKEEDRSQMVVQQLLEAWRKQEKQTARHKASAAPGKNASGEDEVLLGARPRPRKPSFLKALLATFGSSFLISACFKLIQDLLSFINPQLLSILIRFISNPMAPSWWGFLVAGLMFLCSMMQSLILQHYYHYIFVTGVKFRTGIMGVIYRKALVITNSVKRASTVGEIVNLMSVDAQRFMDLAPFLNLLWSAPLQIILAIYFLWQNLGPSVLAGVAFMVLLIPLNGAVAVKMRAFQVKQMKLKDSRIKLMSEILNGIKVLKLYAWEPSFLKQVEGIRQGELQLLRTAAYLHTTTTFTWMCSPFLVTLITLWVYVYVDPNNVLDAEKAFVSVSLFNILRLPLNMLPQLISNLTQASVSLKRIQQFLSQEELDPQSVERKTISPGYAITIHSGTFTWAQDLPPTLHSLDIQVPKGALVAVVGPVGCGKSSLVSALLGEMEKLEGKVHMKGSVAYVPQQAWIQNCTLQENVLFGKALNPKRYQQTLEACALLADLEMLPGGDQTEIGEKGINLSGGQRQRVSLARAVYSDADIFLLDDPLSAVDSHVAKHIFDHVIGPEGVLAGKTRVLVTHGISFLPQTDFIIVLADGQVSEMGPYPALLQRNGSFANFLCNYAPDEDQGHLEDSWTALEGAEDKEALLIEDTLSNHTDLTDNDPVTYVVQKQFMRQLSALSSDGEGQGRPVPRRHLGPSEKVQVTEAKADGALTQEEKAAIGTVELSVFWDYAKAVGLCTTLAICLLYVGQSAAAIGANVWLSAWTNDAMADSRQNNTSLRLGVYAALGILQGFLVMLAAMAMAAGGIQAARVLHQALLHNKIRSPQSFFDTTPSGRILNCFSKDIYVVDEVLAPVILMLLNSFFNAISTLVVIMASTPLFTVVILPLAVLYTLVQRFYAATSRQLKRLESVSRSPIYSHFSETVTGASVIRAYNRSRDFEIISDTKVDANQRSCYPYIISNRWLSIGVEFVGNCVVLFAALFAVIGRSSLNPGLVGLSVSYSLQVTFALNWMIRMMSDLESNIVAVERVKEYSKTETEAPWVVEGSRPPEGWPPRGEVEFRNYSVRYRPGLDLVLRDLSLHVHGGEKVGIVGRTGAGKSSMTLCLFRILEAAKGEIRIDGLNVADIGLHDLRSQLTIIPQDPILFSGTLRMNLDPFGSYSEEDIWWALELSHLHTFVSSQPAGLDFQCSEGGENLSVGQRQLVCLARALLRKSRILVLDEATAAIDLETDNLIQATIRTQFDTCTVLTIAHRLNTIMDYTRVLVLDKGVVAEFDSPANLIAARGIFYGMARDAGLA
Chain of human MDR1 (P08183 whole entry): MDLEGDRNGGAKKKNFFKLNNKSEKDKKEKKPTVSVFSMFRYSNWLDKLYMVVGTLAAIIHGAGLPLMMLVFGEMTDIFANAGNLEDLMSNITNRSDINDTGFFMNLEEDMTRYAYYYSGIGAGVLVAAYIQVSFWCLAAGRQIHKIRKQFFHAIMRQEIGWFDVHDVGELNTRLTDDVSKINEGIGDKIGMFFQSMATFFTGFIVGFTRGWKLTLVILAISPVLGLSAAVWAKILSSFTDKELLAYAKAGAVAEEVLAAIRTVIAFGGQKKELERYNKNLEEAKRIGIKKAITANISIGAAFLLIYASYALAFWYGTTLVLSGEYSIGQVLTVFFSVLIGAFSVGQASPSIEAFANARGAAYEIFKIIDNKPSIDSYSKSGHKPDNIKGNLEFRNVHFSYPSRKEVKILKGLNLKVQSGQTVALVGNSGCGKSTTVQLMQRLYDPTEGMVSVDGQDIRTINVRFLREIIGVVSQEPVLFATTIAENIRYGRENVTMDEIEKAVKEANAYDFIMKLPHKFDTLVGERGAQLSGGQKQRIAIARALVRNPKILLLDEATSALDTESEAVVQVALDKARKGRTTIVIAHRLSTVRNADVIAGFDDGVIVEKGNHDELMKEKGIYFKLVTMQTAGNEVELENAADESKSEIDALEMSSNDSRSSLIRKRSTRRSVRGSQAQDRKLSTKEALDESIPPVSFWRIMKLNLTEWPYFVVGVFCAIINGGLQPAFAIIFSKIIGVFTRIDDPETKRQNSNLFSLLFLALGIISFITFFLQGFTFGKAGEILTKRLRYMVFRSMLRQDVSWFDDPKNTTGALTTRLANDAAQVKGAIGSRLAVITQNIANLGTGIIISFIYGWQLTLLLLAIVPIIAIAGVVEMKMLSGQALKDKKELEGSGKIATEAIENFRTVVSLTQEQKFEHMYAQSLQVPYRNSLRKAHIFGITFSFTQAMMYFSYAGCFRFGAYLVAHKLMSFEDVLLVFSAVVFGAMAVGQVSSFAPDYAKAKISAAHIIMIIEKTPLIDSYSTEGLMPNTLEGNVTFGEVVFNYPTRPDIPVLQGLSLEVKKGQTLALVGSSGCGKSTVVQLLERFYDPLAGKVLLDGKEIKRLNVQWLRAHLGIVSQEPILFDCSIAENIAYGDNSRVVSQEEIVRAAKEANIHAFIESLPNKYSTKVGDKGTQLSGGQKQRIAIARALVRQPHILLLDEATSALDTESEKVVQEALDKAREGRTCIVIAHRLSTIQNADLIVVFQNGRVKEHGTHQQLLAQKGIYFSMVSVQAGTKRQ
Chain of rat Mrp2 (Q63120 whole entry): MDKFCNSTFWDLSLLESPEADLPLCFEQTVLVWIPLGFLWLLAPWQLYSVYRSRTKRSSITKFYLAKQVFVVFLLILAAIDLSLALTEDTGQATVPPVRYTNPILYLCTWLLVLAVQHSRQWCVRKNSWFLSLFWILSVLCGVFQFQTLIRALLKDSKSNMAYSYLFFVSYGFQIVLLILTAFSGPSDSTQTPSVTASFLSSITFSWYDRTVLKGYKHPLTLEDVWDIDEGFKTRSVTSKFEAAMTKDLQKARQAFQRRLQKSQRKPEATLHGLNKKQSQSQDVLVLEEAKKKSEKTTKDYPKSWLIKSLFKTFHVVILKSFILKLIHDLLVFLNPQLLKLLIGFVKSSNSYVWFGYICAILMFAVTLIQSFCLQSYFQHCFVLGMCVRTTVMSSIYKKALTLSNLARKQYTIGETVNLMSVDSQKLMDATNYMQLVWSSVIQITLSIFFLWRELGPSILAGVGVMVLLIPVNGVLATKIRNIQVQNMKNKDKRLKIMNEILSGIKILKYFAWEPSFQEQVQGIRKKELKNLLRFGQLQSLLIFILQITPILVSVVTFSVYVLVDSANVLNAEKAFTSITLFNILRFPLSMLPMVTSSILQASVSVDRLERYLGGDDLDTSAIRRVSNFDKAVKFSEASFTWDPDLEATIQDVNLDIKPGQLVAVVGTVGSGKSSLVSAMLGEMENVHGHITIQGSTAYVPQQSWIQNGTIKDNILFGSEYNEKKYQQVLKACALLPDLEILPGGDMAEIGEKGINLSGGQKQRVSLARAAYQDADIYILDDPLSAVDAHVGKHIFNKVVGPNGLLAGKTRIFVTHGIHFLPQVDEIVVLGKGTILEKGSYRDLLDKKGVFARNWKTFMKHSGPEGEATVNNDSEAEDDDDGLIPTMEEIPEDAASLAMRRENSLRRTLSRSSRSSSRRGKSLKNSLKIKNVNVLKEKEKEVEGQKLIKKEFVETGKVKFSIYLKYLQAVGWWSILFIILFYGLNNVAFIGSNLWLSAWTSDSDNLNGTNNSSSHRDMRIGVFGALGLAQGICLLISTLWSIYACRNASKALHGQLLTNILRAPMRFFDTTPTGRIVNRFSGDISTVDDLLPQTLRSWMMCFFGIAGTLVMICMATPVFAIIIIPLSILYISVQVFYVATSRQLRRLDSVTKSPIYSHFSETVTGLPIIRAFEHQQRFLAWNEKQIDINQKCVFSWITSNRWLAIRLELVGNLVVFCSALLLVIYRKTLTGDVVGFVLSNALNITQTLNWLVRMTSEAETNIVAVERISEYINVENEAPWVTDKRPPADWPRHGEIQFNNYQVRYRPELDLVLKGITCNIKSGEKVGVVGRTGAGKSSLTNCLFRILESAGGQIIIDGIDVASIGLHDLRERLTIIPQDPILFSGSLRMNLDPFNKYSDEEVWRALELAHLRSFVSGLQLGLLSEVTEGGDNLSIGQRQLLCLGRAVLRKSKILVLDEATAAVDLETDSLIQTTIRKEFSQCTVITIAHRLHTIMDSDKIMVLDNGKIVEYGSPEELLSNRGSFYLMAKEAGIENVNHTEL

Compound | TransportATP/TransportAMP ratio (net transport ratio) [1, 6] | TransportATP/TransportAMP ratio (net transport ratio) [2, 7] | TransportATP/TransportAMP ratio (net transport ratio) [3, 8] | TransportATP/TransportAMP ratio (net transport ratio) [4, 9] | TransportTC/TransportMC ratio (net transport ratio) [5, 10] | TransportATP/TransportAMP ratio (net transport ratio) ([1]; human, 100 μM, pH 7) | TransportATP/TransportAMP ratio (net transport ratio) ([2]; human, not told, 100 μM, pH 7) | TransportATP/TransportAMP ratio (net transport ratio) ([3]; human, 100 μM, pH 7) | TransportATP/TransportAMP ratio (net transport ratio) ([4]; rat, 100 μM, pH 7) | TransportTC/TransportMC ratio (net transport ratio) ([5]; human, 100 μM) | K m ([5]; human renal basolateral uptake OAT3, 5 min incubation, concentrations in Table 1) | microsomal CLint ([5]; human, other cell line) [µL/min/mg] | substrate of rat Mrp2 [4]
O=C(/C=C/c1ccc(O)c2c1[C@H](C(=O)O)[C@@H](c1ccc(O)c(O)c1)O2)O[C@H](Cc1ccc(O)c(O)c1)C(=O)O [Lithospermic acid, lithospermic acid] | 1.72 ± 0.28 | 1.12 ± 0.31 | 1.26 ± 0.09 | 1.83 ± 0.45 | 0.96 ± 0.15 |  |  |  |  |  |  |  | 
O=C(O)c1ccc(O)c(O)c1 [Protocatechuic acid, protocatechuic acid] | 1.25 ± 0.08 | 1.04 ± 0.19 | 0.93 ± 0.04 | 0.74 ± 0.13 | 1.12 ± 0.25 |  |  |  |  |  |  |  | 
O=C(/C=C/c1ccc(O)c(O)c1)O[C@H](Cc1ccc(O)c(O)c1)C(=O)O [Rosmarinic acid, rosmarinic acid] |  |  |  |  |  | 1.38 ± 0.01 | 1.12 ± 0.55 | 1.04 ± 0.18 | 1.24 ± 0.45 | 1.56 ± 0.36 |  |  | 
O=C(/C=C/c1ccc(O)c(O)c1/C=C/c1ccc(O)c(O)c1)O[C@H](Cc1ccc(O)c(O)c1)C(=O)O [Salvianolic acid A, salvianolic acid A] |  |  |  |  |  | 1.54 ± 0.23 | 1.12 ± 0.35 | 1.26 ± 0.05 | 1.80 ± 0.81 | 2.12 ± 0.13 |  |  | 
O=C(O)Cc1c(/C=C/C(=O)O[C@H](Cc2ccc(O)c(O)c2)C(=O)O)ccc(O)c1O [Salvianolic acid D, salvianolic acid D] | 1.35 ± 0.30 | 2.22 ± 0.61 | 0.92 ± 0.23 | 2.21 ± 0.89 | 1.12 ± 0.56 |  |  |  |  |  |  |  | 
O=C(O)C(O)Cc1ccc(O)c(O)c1 (stereo not drawn) [Tanshinol, tanshinol] |  |  |  |  |  |  |  |  |  |  | 1,565 ± 127 μM | 0.11 | 
salvianolic acid B | 1.47 ± 0.33 | 1.54 ± 0.78 | 1.66 ± 0.12 | 4.43 ± 1.12 | 1.03 ± 0.24 |  |  |  |  |  |  |  | substrate
